Molecular target: T1, AsPC-1 HiBiT-KRASG12D (Homo sapiens, UniProt P01116, G12D)
T1 construct: insert the HiBiT tag onto the N-terminus of one or more of the endogenous KRAS alleles; endogenous in cells; host or cells: AsPC-1 (ATCC CRL-1682), CRISPR-Cas9 knock-in clone, one tagged allele
Assay: HiBiT degradation assay (G12D), AsPC-1 HiBiT-KRASG12D cells
Assay type: cell-based
Settings: 24 hours treatment; for Dmax: ASPC1, AsPC-1 HiBiT-KRASG12D cells, maximum degradation observed; for DC50: AsPC-1 HiBiT-KRASG12D cells, HiBiT luminescence
In short: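 24 h cmpd treatment, 37° C/5% CO2, AsPC-1 HiBiT-KRASG12D clone (CRISPR N-term tag). Alamar blue 1×, 4 h, fluorescence. PBS wash, Nano-Glo HiBiT lytic reagent, 45 min RT, luminescence. Triplicates.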

T1 sequence (P01116 1-188 isoform P01116-2 G12D): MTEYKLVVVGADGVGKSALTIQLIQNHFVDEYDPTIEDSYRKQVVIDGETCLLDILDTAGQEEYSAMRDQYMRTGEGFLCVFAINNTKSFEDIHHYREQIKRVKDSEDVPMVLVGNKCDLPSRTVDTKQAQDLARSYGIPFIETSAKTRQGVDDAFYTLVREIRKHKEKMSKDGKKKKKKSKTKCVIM

| SMILES | Dmax [%] | DC50 [nM] |
| --- | --- | --- |
| CCc1cccc2cc(O)cc(-c3ncc4c(N5CC6CCC(C5)N6)nc(OC[C@]56CCCN5[C@H](COC(=O)N5CCN(c7cc([C@H](C(=O)N8C[C@H](O)C[C@H]8C(=O)N[C@@H](C)c8ccc(-c9scnc9C)cc8)C(C)C)on7)[C@@H](C)C5)CC6)nc4c3F)c12 [Compound 123, [(3S,7aR)-7a-{[(4-{3,8-diazabicyclo[3.2.1]octan-3-yl}-7-(8-ethyl-3-hydroxynaphthalen-1-yl)-8-fluoropyrido[4,3-d]pyrimidin-2-yl)oxy]methyl}-hexahydro-1H-pyrrolizin-3-yl]methyl (3S)-4-{5-[(2R)-1-[(2S,4R)-4-hydroxy-2-{[(1S)-1-[4-(4-methyl-1,3-thiazol-5-yl)phenyl]ethyl]carbamoyl}pyrrolidin-1-yl]-3-methyl-1-oxobutan-2-yl]-1,2-oxazol-3-yl}-3-methylpiperazine-1-carboxylate] | 80 to 100 | < 600 |
| CCc1cccc2cc(O)cc(-c3ncc4c(N5CCCCCC5)nc(OC[C@@]56CCCN5[C@H](COc5cc([C@@H](C(=O)N7C[C@H](O)C[C@H]7C(=O)N[C@@H](C)c7ccc(-c8scnc8C)cc7)C(C)C)on5)CC6)nc4c3F)c12 (single isomer, unassigned) [Compound 339] | – | > 3000 |
| CCc1cccc2cc(O)cc(-c3ncc4c(N5CC6CCC(C5)N6)nc(OC[C@]56CCCN5[C@H](COC(=O)N5CCN(c7cc([C@H](C(=O)N8C[C@H](O)C[C@H]8C(=O)N[C@@H](C)c8ccc(-c9scnc9C)cc8)C(C)C)on7)C[C@@H]5C)CC6)nc4c3F)c12 [Compound 132, [(3S,7aR)-7a-{[(4-{3,8-diazabicyclo[3.2.1]octan-3-yl}-7-(8-ethyl-3-hydroxynaphthalen-1-yl)-8-fluoropyrido[4,3-d]pyrimidin-2-yl)oxy]methyl}-hexahydro-1H-pyrrolizin-3-yl]methyl (2S)-4-{5-[(2R)-1-[(2S,4R)-4-hydroxy-2-{[(1S)-1-[4-(4-methyl-1,3-thiazol-5-yl)phenyl]ethyl]carbamoyl}pyrrolidin-1-yl]-3-methyl-1-oxobutan-2-yl]-1,2-oxazol-3-yl}-2-methylpiperazine-1-carboxylate] | 80 to 100 | < 600 |
| CCc1cccc2cc(O)cc(-c3ncc4c(N5CC6CCC(C5)N6)nc(OCCN5CCN(c6cc([C@H](C(=O)N7C[C@H](O)C[C@H]7C(=O)N[C@@H](C)c7ccc(-c8scnc8C)cc7)C(C)C)on6)CC5)nc4c3F)c12 (relative stereo) [Compound 134, (2S,4R)-1-[(2R*)-2-[3-(4-{2-[(4-{3,8-diazabicyclo[3.2.1]octan-3-yl}-7-(8-ethyl-3-hydroxynaphthalen-1-yl)-8-fluoropyrido[4,3-d]pyrimidin-2-yl)oxy]ethyl}piperazin-1-yl)-1,2-oxazol-5-yl]-3-methylbutanoyl]-4-hydroxy-N-[(1S)-1-[4-(4-methyl-1,3-thiazol-5-yl)phenyl]ethyl]pyrrolidine-2-carboxamide] | 20 to 60 | 1000 to 3000 |
| CCc1cccc2cc(O)cc(-c3ncc4c(N5CC6CCC(C5)N6)nc(OC[C@]56CCCN5[C@H](COC(=O)N5CCN(c7cc([C@@H](C(=O)N8C[C@H](O)C[C@H]8C(=O)N[C@@H](C)c8ccc(-c9scnc9C)cc8)C(C)C)on7)C[C@H]5C)CC6)nc4c3F)c12 [Compound 125, [(3S,7aR)-7a-{[(4-{3,8-diazabicyclo[3.2.1]octan-3-yl}-7-(8-ethyl-3-hydroxynaphthalen-1-yl)-8-fluoropyrido[4,3-d]pyrimidin-2-yl)oxy]methyl}-hexahydro-1H-pyrrolizin-3-yl]methyl (2R)-4-{5-[(2S)-1-[(2S,4R)-4-hydroxy-2-{[(1S)-1-[4-(4-methyl-1,3-thiazol-5-yl)phenyl]ethyl]carbamoyl}pyrrolidin-1-yl]-3-methyl-1-oxobutan-2-yl]-1,2-oxazol-3-yl}-2-methylpiperazine-1-carboxylate] | 20 to 60 | 600 to 1000 |
| CCc1cccc2cc(O)cc(-c3ncc4c(N5CC6CCC(C5)N6)nc(OC[C@@]56CCCN5[C@H](CN5CCC7(CC5)CN(c5cc([C@H](C(=O)N8C[C@H](O)C[C@H]8C(=O)N[C@@H](C)c8ccc(-c9scnc9C)cc8)C(C)C)on5)C7)CC6)nc4c3F)c12 [Compound 88, (2S,4R)-1-[(2R)-2-[3-(7-{[(3S,7aS)-7a-{[(4-{3,8-diazabicyclo[3.2.1]octan-3-yl}-7-(8-ethyl-3-hydroxynaphthalen-1-yl)-8-fluoropyrido[4,3-d]pyrimidin-2-yl)oxy]methyl}-hexahydro-1H-pyrrolizin-3-yl]methyl}-2,7-diazaspiro[3.5]nonan-2-yl)-1,2-oxazol-5-yl]-3-methylbutanoyl]-4-hydroxy-N-[(1S)-1-[4-(4-methyl-1,3-thiazol-5-yl)phenyl]ethyl]pyrrolidine-2-carboxamide] | 80 to 100 | < 600 |
| CCc1cccc2cc(O)cc(-c3ncc4c(N5CC6CCC(C5)N6)nc(OCCN5CCN(c6cc([C@@H](C(=O)N7C[C@H](O)C[C@H]7C(=O)N[C@@H](C)c7ccc(-c8scnc8C)cc7)C(C)C)on6)CC5)nc4c3F)c12 (relative stereo) [Compound 136, (2S,4R)-1-[(2R*)-2-[3-(4-{2-[(4-{3,8-diazabicyclo[3.2.1]octan-3-yl}-7-(8-ethyl-3-hydroxynaphthalen-1-yl)-8-fluoropyrido[4,3-d]pyrimidin-2-yl)oxy]ethyl}piperazin-1-yl)-1,2-oxazol-5-yl]-3-methylbutanoyl]-4-hydroxy-N-[(1S)-1-[4-(4-methyl-1,3-thiazol-5-yl)phenyl]ethyl]pyrrolidine-2-carboxamide] | – | > 3000 |
| CCc1cccc2cc(O)cc(-c3ncc4c(N5CC6CCC(C5)N6)nc(OC[C@]56CCCN5[C@H](COC(=O)N5CCN(c7cc([C@H](C(=O)N8C[C@H](O)C[C@H]8C(=O)N[C@@H](C)c8ccc(-c9scnc9C)cc8)C(C)C)on7)C[C@H]5C)CC6)nc4c3F)c12 [Compound 120, [(3S,7aR)-7a-{[(4-{3,8-diazabicyclo[3.2.1]octan-3-yl}-7-(8-ethyl-3-hydroxynaphthalen-1-yl)-8-fluoropyrido[4,3-d]pyrimidin-2-yl)oxy]methyl}-hexahydro-1H-pyrrolizin-3-yl]methyl (2R)-4-{5-[(2R)-1-[(2S,4R)-4-hydroxy-2-{[(1S)-1-[4-(4-methyl-1,3-thiazol-5-yl)phenyl]ethyl]carbamoyl}pyrrolidin-1-yl]-3-methyl-1-oxobutan-2-yl]-1,2-oxazol-3-yl}-2-methylpiperazine-1-carboxylate] | 80 to 100 | < 600 |
| CCc1cccc2cc(O)cc(-c3ncc4c(N5CC6CCC(C5)N6)nc(OCCN5CCC(F)(CN6CCN(c7cc([C@@H](C(=O)N8C[C@H](O)C[C@H]8C(=O)N[C@@H](C)c8ccc(-c9scnc9C)cc8)C(C)C)on7)C[C@@H]6C)CC5)nc4c3F)c12 [Compound 196, (2S,4R)-1-[(2S)-2-{3-[(3S)-4-[(1-{2-[(4-{3,8-diazabicyclo[3.2.1]octan-3-yl}-7-(8-ethyl-3-hydroxynaphthalen-1-yl)-8-fluoropyrido[4,3-d]pyrimidin-2-yl)oxy]ethyl}-4-fluoropiperidin-4-yl)methyl]-3-methylpiperazin-1-yl]-1,2-oxazol-5-yl}-3-methylbutanoyl]-4-hydroxy-N-[(1S)-1-[4-(4-methyl-1,3-thiazol-5-yl)phenyl]ethyl]pyrrolidine-2-carboxamide] | 20 to 60 | 600 to 1000 |
| CCc1cccc2cc(O)cc(-c3ncc4c(N5CC6CCC(C5)N6)nc(OC[C@@]56CCCN5[C@H](CN5CCC(COc7cc([C@H](C(=O)N8C[C@H](O)C[C@H]8C(=O)N[C@@H](C)c8ccc(-c9scnc9C)cc8)C(C)C)on7)CC5)CC6)nc4c3F)c12 [Compound 96, (2S,4R)-1-[(2R)-2-{3-[(1-{[(3S,7aS)-7a-{[(4-{3,8-diazabicyclo[3.2.1]octan-3-yl}-7-(8-ethyl-3-hydroxynaphthalen-1-yl)-8-fluoropyrido[4,3-d]pyrimidin-2-yl)oxy]methyl}-hexahydro-1H-pyrrolizin-3-yl]methyl}piperidin-4-yl)methoxy]-1,2-oxazol-5-yl}-3-methylbutanoyl]-4-hydroxy-N-[(1S)-1-[4-(4-methyl-1,3-thiazol-5-yl)phenyl]ethyl]pyrrolidine-2-carboxamide] | 80 to 100 | < 600 |
| C#Cc1c(F)ccc2cc(O)cc(-c3ncc4c(N5CC6CCC(C5)N6)nc(OCCN5CC[C@H]6CN(c7cc([C@H](C(=O)N8C[C@H](O)C[C@H]8C(=O)N[C@@H](C)c8ccc(-c9scnc9C)cc8)C(C)C)on7)C[C@H]6C5)nc4c3F)c12 [Compound 183, (2S,4R)-1-[(2R)-2-{3-[(3aR,7aR)-5-{2-[(4-{3,8-diazabicyclo[3.2.1]octan-3-yl}-7-(8-ethynyl-7-fluoro-3-hydroxynaphthalen-1-yl)-8-fluoropyrido[4,3-d]pyrimidin-2-yl)oxy]ethyl}-octahydro-1H-pyrrolo[3,4-c]pyridin-2-yl]-1,2-oxazol-5-yl}-3-methylbutanoyl]-4-hydroxy-N-[(1S)-1-[4-(4-methyl-1,3-thiazol-5-yl)phenyl]ethyl]pyrrolidine-2-carboxamide] | 80 to 100 | < 600 |
| CCc1cccc2cc(O)cc(-c3ncc4c(N5CC6CCC(C5)N6)nc(OC[C@]56CCCN5[C@@H](COC(=O)N(C)Cc5cc([C@H](C(=O)N7C[C@H](O)C[C@H]7C(=O)N[C@@H](C)c7ccc(-c8scnc8C)cc7)C(C)C)on5)CC6)nc4c3F)c12 [Compound 92, [(3R,7aR)-7a-{[(4-{3,8-diazabicyclo[3.2.1]octan-3-yl}-7-(8-ethyl-3-hydroxynaphthalen-1-yl)-8-fluoropyrido[4,3-d]pyrimidin-2-yl)oxy]methyl}-hexahydro-1H-pyrrolizin-3-yl]methyl N-({5-[(2R)-1-[(2S,4R)-4-hydroxy-2-{[(1S)-1-[4-(4-methyl-1,3-thiazol-5-yl)phenyl]ethyl]carbamoyl}pyrrolidin-1-yl]-3-methyl-1-oxobutan-2-yl]-1,2-oxazol-3-yl}methyl)-N-methylcarbamate] | 80 to 100 | < 600 |
